Target: T1, Human complement C1s enzyme (Homo sapiens, UniProt P09871)
T1 construct: purified from human serum, Complement Technology, Inc; purchased Complement Technology, Inc; host or cells: human serum (plasma-derived natural protein)
T1 sequence (P09871 438-688 limits assumed): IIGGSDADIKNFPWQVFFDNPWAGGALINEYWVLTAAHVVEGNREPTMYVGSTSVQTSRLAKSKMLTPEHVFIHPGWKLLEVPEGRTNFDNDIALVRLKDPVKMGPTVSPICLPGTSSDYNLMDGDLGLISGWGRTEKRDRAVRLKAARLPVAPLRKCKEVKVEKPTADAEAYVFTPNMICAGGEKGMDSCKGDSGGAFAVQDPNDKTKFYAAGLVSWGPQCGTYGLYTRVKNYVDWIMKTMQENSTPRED
T1 sequence (P09871 16-437 partner limits assumed): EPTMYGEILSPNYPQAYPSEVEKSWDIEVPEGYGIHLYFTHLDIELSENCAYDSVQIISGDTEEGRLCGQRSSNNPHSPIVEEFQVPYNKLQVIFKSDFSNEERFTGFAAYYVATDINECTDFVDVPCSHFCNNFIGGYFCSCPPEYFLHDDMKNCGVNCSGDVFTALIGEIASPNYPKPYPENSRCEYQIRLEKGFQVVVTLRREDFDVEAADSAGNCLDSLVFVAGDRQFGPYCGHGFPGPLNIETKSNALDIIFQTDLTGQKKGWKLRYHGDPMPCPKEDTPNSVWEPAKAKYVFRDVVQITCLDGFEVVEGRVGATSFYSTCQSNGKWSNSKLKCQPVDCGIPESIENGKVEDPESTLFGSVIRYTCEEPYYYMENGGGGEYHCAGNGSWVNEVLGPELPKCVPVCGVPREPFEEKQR
Assay: Human C1s Enzyme Assay
Format: biochemical
Details: Table 1; C1s purified from human serum, 1.16 nM; substrate Z-L-Lys-SBzl; read-out: C1s Protease Activity
In short: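 Serum-purified human C1s (1.16 nM) preincubated 5 min at RT with compound in 50 mM Tris, 1 M NaCl, pH 7.5. Z-L-Lys-SBzl and DTNB (100 μM each) then added; A405 followed every 30 s for 30 min. IC50 from nonlinear regression of reaction rates versus compound concentration.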

IC50 [nM] | Compound
< 100 | N=C(N)c1csc(CNC(=O)[C@@H]2CC3(CCCC3)CN2C(=O)CNC(=O)c2ccc(Oc3ccccc3)cc2)c1 [Compound 12, (3S)—N-[(4-Carbamimidoylthiophen-2-yl)methyl]-2-{2-[(4-phenoxyphenyl)formamido]acetyl}-2-azaspiro[4.4]nonane-3-carboxamide]
< 100 | N=C(N)c1csc(CNC(=O)[C@@H]2CC3(CN2C(=O)CNC(=O)c2ccc(Oc4ccccc4)cc2)OCCO3)c1 [Compound 2, (8S)—N-[(4-carbamimidoylthiophen-2-yl)methyl]-7-{2-[(4-phenoxyphenyl)formamido]acetyl}-1,4-dioxa-7-azaspiro[4.4]nonane-8-carboxamide]
< 100 | CO[C@H]1C[C@@H](C(=O)NCc2cc(C(=N)N)cs2)N(C(=O)CNC(=O)c2ccc(Oc3ccccc3)cc2)C1 [Compound 33, (2S,4S)—N-[(4-carbamimidoylthiophen-2-yl)methyl]-4-methoxy-1-{2-[(4-phenoxyphenyl)formamido]acetyl}pyrrolidine-2-carboxamide]
100 to 1000 | N=C(N)c1csc(CNC(=O)[C@@H]2CN2C(=O)CNC(=O)c2ccc(Oc3ccccc3)cc2)c1 [Compound 14, (2S)—N-[(4-Carbamimidoylthiophen-2-yl)methyl]-1-{2-[(4-phenoxyphenyl)formamido]acetyl}aziridine-2-carboxamide]
> 1000 | N=C(N)CCCNC(=O)[C@@H]1CCCN1C(=O)CNC(=O)c1ccc(Oc2ccccc2)cc1 [Compound 28, (S)-N-(4-amino-4-iminobutyl)-1-((4-phenoxybenzoyl)glycyl)pyrrolidine-2-carboxamide]
< 100 | C[C@@]1(C(=O)NCc2cc(C(=N)N)cs2)CCCN1C(=O)CNC(=O)c1ccc(Oc2ccccc2)cc1 [Compound 3, (2S)—N-[(4-Carbamimidoylthiophen-2-yl)methyl]-2-methyl-1-{2-[(4-phenoxyphenyl)formamido]acetyl}pyrrolidine-2-carboxamide]
> 1000 | CC(=O)Nc1ccc(CNC(=O)[C@@H]2CC3(CN2C(=O)CNC(=O)c2ccc(Oc4ccccc4)cc2)OCCO3)cc1 [Compound 21, (8S)—N-[(4-Acetamidophenyl)methyl]-7-{2-[(4-phenoxyphenyl)formamido]acetyl}-1,4-dioxa-7-azaspiro[4.4]nonane-8-carboxamide]
< 100 | CO[C@@H]1C[C@@H](C(=O)NCc2cc(C(=N)N)cs2)N(C(=O)CNC(=O)c2ccc(Oc3ccccc3)cc2)C1 [Compound 32, (2S,4R)—N-[(4-carbamimidoylthiophen-2-yl)methyl]-4-methoxy-1-{2-[(4-phenoxyphenyl)formamido]acetyl}pyrrolidine-2-carboxamide]

Same assay, conditions: Table 2; C1s purified from human serum, 1.16 nM; substrate Z-L-Lys-SBzl; read-out: C1s Protease Activity

IC50 [nM] | Compound
> 1000 | CC(N)c1csc(CNC(=O)[C@@H]2CCCN2C(=O)CNC(=O)c2ccc(Oc3ccccc3)cc2)c1 (stereo partly drawn) [Compound 60, (2S)-N-((4-(1-aminoethyl)thiophen-2-yl)methyl)-1-((4-phenoxybenzoyl)glycyl)pyrrolidine-2-carboxamide]
< 100 | CCCCc1cc(C(=O)NCC(=O)N2CCC[C@H]2C(=O)NCc2cc(C(=N)N)cs2)ccc1Oc1ccccc1 [Compound 43, (S)-1-((3-butyl-4-phenoxybenzoyl)glycyl)-N-((4-carbamimidoylthiophen-2-yl)methyl)pyrrolidine-2-carboxamide]
< 100 | CCCCc1ccc(C(=O)NCC(=O)N2CCC[C@H]2C(=O)NCc2cc(C(=N)N)cs2)cc1 [Compound 73, (S)-1-((4-butylbenzoyl)glycyl)-N-((4-carbamimidoylthiophen-2-yl)methyl)pyrrolidine-2-carboxamide]
100 to 1000 | CCCCCCC(=O)NCC(=O)N1CCC[C@H]1C(=O)NCc1cc(C(=N)N)cs1 [Compound 83, (S)-N-((4-carbamimidoylthiophen-2-yl)methyl)-1-(heptanoylglycyl)pyrrolidine-2-carboxamide]
> 1000 | N=C(N)NOCCNC(=O)[C@@H]1CC2(CN1C(=O)CNC(=O)c1ccc(Oc3ccccc3)cc1)OCCO2 [Compound 65, (S)-N-(2-(guanidinooxy)ethyl)-7-((4-phenoxybenzoyl)glycyl)-1,4-dioxa-7-azaspiro[4.4]nonane-8-carboxamide]
< 100 | N=C(N)c1csc(CNC(=O)[C@@H]2CCCN2C(=O)CCCc2ccc(Oc3ccccc3)cc2)c1 [Compound 53, (S)-N-((4-carbamimidoylthiophen-2-yl)methyl)-1-(4-(4-phenoxyphenyl)butanoyl)pyrrolidine-2-carboxamide]
> 1000 | N=C(N)c1csc(CNC(=O)[C@@H]2CCCN2CCCC(=O)c2ccc(Oc3ccccc3)cc2)c1 [Compound 54, (S)-N-((4-carbamimidoylthiophen-2-yl)methyl)-1-(4-oxo-4-(4-phenoxyphenyl)butyl)pyrrolidine-2-carboxamide]
> 1000 | C[C@H](OCc1ccccc1)[C@H](OCc1ccccc1)[C@@H](OCc1ccccc1)[C@H](CN(CC(=O)N1CC2(C[C@H]1C(=O)NCc1cc(C(=N)N)cs1)OCCO2)C(=O)OCc1ccccc1)OCc1ccccc1 [Compound 87, benzyl (2-((S)-8-(((4-carbamimidoylthiophen-2-yl)methyl)carbamoyl)-1,4-dioxa-7-azaspiro[4.4]nonan-7-yl)-2-oxoethyl)((2S,3S,4S,5S)-2,3,4,5-tetrakis(benzyloxy)hexyl)carbamate]
< 100 | CCCOc1ccc(C(=O)NCC(=O)N2CCC[C@H]2C(=O)NCc2cc(C(=N)N)cs2)cc1 [Compound 77, (S)-N-((4-carbamimidoylthiophen-2-yl)methyl)-1-((4-propoxybenzoyl)glycyl)pyrrolidine-2-carboxamide]
> 1000 | NCc1csc(CNC(=O)[C@@H]2CCCN2C(=O)CNC(=O)c2ccc(Oc3ccccc3)cc2)c1 [Compound 55, (S)-N-((4-(aminomethyl)thiophen-2-yl)methyl)-1-((4-phenoxybenzoyl)glycyl)pyrrolidine-2-carboxamide]
> 1000 | N=C(N)c1csc(CNC(=O)[C@@H]2CCCN2CCCCc2ccc(Oc3ccccc3)cc2)c1 [Compound 37, (S)-N-((4-carbamimidoylthiophen-2-yl)methyl)-1-(4-(4-phenoxyphenyl)butyl)pyrrolidine-2-carboxamide]

Same assay, conditions: Table 3; C1s purified from human serum, 1.16 nM; substrate Z-L-Lys-SBzl; read-out: C1s Protease Activity

IC50 [nM] | Compound
< 100 | N=C(N)c1csc(CNC(=O)[C@@H]2C[C@@H]3CCCC[C@@H]3N2C(=O)CNC(=O)c2ccc(Oc3ccccc3)cc2)c1 [Compound 102, (2S,3aS,7aS)-N-((4-carbamimidoylthiophen-2-yl)methyl)-1-((4-phenoxybenzoyl)glycyl)octahydro-1H-indole-2-carboxamide]
< 100 | N=C(N)c1csc(CNC(=O)[C@@H]2C[C@H](Oc3cccc(F)c3)CN2C(=O)CNC(=O)c2ccc(Oc3ccccc3)cc2)c1 [Compound 108, (2S,4S)-N-((4-carbamimidoylthiophen-2-yl)methyl)-4-(3-fluorophenoxy)-1-((4-phenoxybenzoyl)glycyl)pyrrolidine-2-carboxamide]
< 100 | N=C(N)c1csc(CNC(=O)[C@@H]2C[C@@H](c3ccccc3)CN2C(=O)CNC(=O)c2ccc(Oc3ccccc3)cc2)c1 [Compound 97, (2S,4S)-N-((4-carbamimidoylthiophen-2-yl)methyl)-1-((4-phenoxybenzoyl)glycyl)-4-phenylpyrrolidine-2-carboxamide]
< 100 | Cc1cccc(O[C@H]2C[C@@H](C(=O)NCc3cc(C(=N)N)cs3)N(C(=O)CNC(=O)c3ccc(Oc4ccccc4)cc3)C2)c1 [Compound 104, (2S,4S)-N-((4-carbamimidoylthiophen-2-yl)methyl)-1-((4-phenoxybenzoyl)glycyl)-4-(m-tolyloxy)pyrrolidine-2-carboxamide]
> 1000 | C[C@@]12C[C@@H]1N(C(=O)CNC(=O)c1ccc(Oc3ccccc3)cc1)[C@H](C(=O)NCc1cc(C#N)cs1)C2 [Compound 93, (1S,3S,5S)-N-((4-cyanothiophen-2-yl)methyl)-5-methyl-2-((4-phenoxybenzoyl)glycyl)-2-azabicyclo[3.1.0]hexane-3-carboxamide]
< 100 | N=C(N)c1csc(CNC(=O)[C@@H]2C[C@@H](OC(F)F)CN2C(=O)CNC(=O)c2ccc(Oc3ccccc3)cc2)c1 [Compound 101, (2S,4R)-N-((4-carbamimidoylthiophen-2-yl)methyl)-4-(difluoromethoxy)-1-((4-phenoxybenzoyl)glycyl)pyrrolidine-2-carboxamide]
< 100 | N=C(N)c1csc(CNC(=O)[C@@H]2C[C@H](Oc3ccc(F)cc3)CN2C(=O)CNC(=O)c2ccc(Oc3ccccc3)cc2)c1 [Compound 103, (2S,4S)-N-((4-carbamimidoylthiophen-2-yl)methyl)-4-(4-fluorophenoxy)-1-((4-phenoxybenzoyl)glycyl)pyrrolidine-2-carboxamide]

Source: patent US12479856B2, “Pharmaceutical compounds for the treatment of complement mediated disorders” (Achillion Pharmaceuticals, Inc., priority 2019, dated 2025)
